Experimental data reported in patent US9815831B2, “3,5-disubstituted-3H-imidazo[4,5-B]pyridine and 3,5-disubstituted-3H-[1,2,3]triazolo[4,5-B] pyridine compounds as modulators of c-Met protein kinases” (Rhizen Pharmaceuticals SA, priority 2012, dated 2017).
Where two headings read alike, the source gives them in different places.

How the values were obtained:
[1] = target: T1, human recombinant Met kinase (Homo sapiens, UniProt P08581); experiment: Colorimetric determination of c-Met kinase activity (HTScan Met Kinase Assay Kit); assay type: biochemical; settings: read-out: c-Met Enzyme IC50
T1 construct: purchased Cell Signalling Technology, Beverly, Mass
T1 sequence (P08581 25-1390): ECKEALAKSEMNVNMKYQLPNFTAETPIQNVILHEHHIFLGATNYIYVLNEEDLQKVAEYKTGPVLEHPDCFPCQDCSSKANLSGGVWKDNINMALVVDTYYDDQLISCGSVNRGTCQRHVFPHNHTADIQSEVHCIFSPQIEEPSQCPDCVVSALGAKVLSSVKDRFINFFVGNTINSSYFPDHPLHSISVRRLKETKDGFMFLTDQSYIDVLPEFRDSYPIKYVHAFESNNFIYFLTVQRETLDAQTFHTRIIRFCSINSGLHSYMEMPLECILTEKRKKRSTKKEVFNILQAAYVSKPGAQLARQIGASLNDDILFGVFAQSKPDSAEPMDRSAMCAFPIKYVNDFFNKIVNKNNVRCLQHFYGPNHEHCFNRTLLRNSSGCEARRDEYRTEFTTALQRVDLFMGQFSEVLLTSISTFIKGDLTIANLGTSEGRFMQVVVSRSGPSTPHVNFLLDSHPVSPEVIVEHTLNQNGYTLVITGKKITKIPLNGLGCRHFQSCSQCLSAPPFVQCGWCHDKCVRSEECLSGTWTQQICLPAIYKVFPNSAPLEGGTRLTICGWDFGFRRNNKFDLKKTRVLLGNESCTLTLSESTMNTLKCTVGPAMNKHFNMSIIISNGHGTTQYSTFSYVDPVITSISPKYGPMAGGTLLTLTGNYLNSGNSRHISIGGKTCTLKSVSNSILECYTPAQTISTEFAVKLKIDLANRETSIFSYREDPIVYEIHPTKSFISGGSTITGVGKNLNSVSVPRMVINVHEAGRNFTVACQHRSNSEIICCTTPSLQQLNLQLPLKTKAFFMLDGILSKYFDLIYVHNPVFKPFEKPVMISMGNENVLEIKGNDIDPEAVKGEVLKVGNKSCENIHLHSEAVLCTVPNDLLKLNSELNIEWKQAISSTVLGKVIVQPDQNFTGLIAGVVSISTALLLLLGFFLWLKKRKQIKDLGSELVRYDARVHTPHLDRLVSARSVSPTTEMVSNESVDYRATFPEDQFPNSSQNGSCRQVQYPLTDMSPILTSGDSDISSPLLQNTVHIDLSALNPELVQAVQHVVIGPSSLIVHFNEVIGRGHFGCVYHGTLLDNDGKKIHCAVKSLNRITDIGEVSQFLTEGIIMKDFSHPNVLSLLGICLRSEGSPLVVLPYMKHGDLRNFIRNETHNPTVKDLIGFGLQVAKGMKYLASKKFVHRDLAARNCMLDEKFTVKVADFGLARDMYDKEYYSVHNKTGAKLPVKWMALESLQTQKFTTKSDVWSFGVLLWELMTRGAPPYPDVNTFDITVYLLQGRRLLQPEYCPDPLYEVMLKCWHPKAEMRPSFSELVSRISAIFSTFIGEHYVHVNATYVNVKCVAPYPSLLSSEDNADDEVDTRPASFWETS

[2] = target: T1, human recombinant Met kinase; experiment: as above; assay type: biochemical; settings: 100 nM (cells without *), read-out: c-Met Enzyme % inhibition @ 100 nM
Outline: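 Human recombinant Met kinase was preincubated with compound for 5 min at room temperature, then reacted with ATP and biotinylated peptide for 30 min; EDTA stop. Phosphopeptide captured on streptavidin and detected with phospho-tyrosine mAb and europium anti-mouse IgG by time-resolved fluorescence (340/615 nm). Reported as % inhibition or IC50.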

[3] = test system: MKN-45; experiment: Inhibition of MKN-45 proliferation (MTT); assay type: cell-based, human; settings: Homo sapiens, MKN-45 proliferation; for inhibition at 0.1 µM: 100 nM, read-out: MKN45 % inhibition @ 100 nM; for GI50: read-out: MKN45 GI50
Outline: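 High-Met human gastric adenocarcinoma MKN-45 cells plated on day 1 and exposed to compound from day 2. Viability measured by MTT dye reduction on day 5; output given as % inhibition at 100 nM and GI50.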

[4] = target: T2, c-Met kinase (Homo sapiens, UniProt P08581); experiment: Inhibition of c-Met kinase phosphorylation in MKN-45 cells (cell based ELISA); set-up: endogenous in cells; host or cells: MKN-45; settings: Table 4D, 1 h incubation
T2 sequence (P08581 25-1390): as above
Experimental: MKN45 cells are a prototype of “c-Met addicted” cells having constitutively activated c-Met kinase similar to that observed in sub-sects of gastric or hepatocellular cancer patients with dysregulated c-Met kinase activity. Inhibition of Met phosphorylation was determined using a cell based ELISA assay according to the following schedule: • Day 1: MKN-45 cells were plated in 96-well plates in complete growth medium. • Day 2: Inhibitors at the desired concentration were added to the plates and incubated for 1 h and lysed subsequently. Lysates were transferred to NUNC Maxisorp plates coated with anti-cMet receptor antibody. Phopho-tyrosine mAb and HRP-lined anti-mouse IgG were used as primary and secondary antibodies respectively. Optical density was measured on a microplate reader (BMG Labtech., Germany) at […]. Inhibition of c-Met phosphorylation in this cell line indicates a therapeutic potential for test compounds in patients diagnosed with cancers caused by aberrant c-Met kinase signalling. Results: The results are provided above in Table 4D as IC50 values.

[5] = test system: Akt; experiment: Inhibition of Akt phosphorylation in NCI-H441 cells (Western blot); assay type: cell-based; settings: Homo sapiens, Table 6, 0-1000 nM
Experimental: (§1) 6. Inhibition of Akt Phosphorylation in MKN-45 or NCI-H441 Cells:
(§2) Akt is a serine-threonine kinase and a downstream marker regulated by c-Met kinase via the PI3K pathway. Once phosphorylated, Akt regulates several end processes including cell survival and growth. Cells were treated with 0-1000 nM of test compounds, lysed, and the proteins separated on a 10% SDS-PAGE. Following separation, proteins were transferred onto a nitrocellulose membrane and detected by chemiluminescence after incubation with […] (primary) and rabbit anti-mouse Ab (secondary). Intensity of the bands was determined using ImageJ 1.42q (NIH, USA) and normalized to Actin (loading control).
(§3) Results: The results are provided below as IC50 values in Table 6.

[6] = target: T2, c-Met kinase; experiment: Inhibition of c-Met kinase phosphorylation in NCI-H441 cells (cell based ELISA); settings: Table 5, 1 h incubation
Experimental: 5. Inhibition of c-Met Kinase Phosphorylation in NCI-H441 Cells:
Inhibition of Met phosphorylation was determined using a cell based ELISA assay according to the following schedule: • Day 1: NCI-H441 cells were plated in 96-well plates in complete growth medium. • Day 2: Inhibitors at the desired concentration were added to the plates, incubated for 1 h and lysed subsequently. Lysates were transferred to NUNC Maxisorp plates coated with anti-cMet receptor antibody. Phopho-tyrosine mAb and HRP-lined anti-mouse IgG were used as primary and secondary antibodies respectively. Optical density was measured on a microplate reader (BMG Labtech., Germany) at […]. […] Results: The results are given below in Table 5 as IC50 values.

[7] = test system: Akt; experiment: Inhibition of Akt phosphorylation in MKN-45 cells (Western blot); assay type: cell-based; settings: Homo sapiens, Table 6, 0-1000 nM
Experimental: as §1, §2, §3

[8] = test system: MKN-45 cells; experiment: Induction of apoptosis in MKN-45 cells (caspase-3 activity); assay type: cell-based, human; settings: percentage induction @ 3 μM; caspase-3, MKN-45 cells, 24 h; percent of maximum response
Experimental: 7. Induction of Apoptosis in MKN-45 Cells: I
Induction of Caspase 3 was measured fluorimetrically. Cells were incubated with desired concentrations of the compound for 24 h. After incubation, cells were harvested and counted. An equal number of viable cells per well (0.3×10^6 cells) were used for determination of caspase-3 activity. Increase in apoptosis manifested by an elevation in caspase-3 levels was determined using a Caspase-3 kit from Millipore. Data are expressed as a percent of the maximum response (100%).
Results: The results are provided below as percentage induction @ 3 μM in Table 7.

IC50 ([1]; Table 4A)	inhibition at 0.1 µM ([2]; Table 4A)	melting point	GI50 ([3]; MKN-45, Table 4A)	IC50 [4]	SMILES	inhibition at 0.1 µM ([3]; MKN-45, Table 4A)	also measured
25 to 50 nM	75 to 100%	–	25 to 50 nM	≤ 10 nM	C[C@@H](O)CONC(=O)c1ccc(-c2ccc3nnn(Cc4ccc5ncccc5c4)c3n2)cc1Cl [Example 32, (R)-2-chloro-N-(2-hydroxypropoxy)-4-(3-(quinolin-6-ylmethyl)-3H-[1,2,3]triazolo[4,5-b]pyridin-5-yl) benzamide]	75 to 100%	–
–	50 to 75%	–	25 to 50 nM	≤ 10 nM	C[C@H](O)CONC(=O)c1ccc(-c2ccc3nnn(Cc4ccc5ncccc5c4)c3n2)cc1Cl [Example 31, (S)-2-chloro-N-(2-hydroxypropoxy)-4-(3-(quinolin-6-ylmethyl)-3H-[1,2,3]triazolo[4,5-b]pyridin-5-yl) benzamide]	50 to 75%	–
–	–	158 to 160 °C	–	–	Cc1cc(-c2ccc3ncn(Cc4c(F)cc5ncccc5c4F)c3n2)ccc1C(N)=O [Example 1027, 4-[3-(5,7-Difluoro-quinolin-6-ylmethyl)-3H-imidazo[4,5-b]pyridin-5-yl]-2-methyl-benzamide]	–	inhibition at 0.1 µM ([2]; Table 4C): 75 to 100%; inhibition at 0.1 µM ([3]; MKN-45, Table 4C): 75 to 100%
–	–	243 to 245 °C	–	–	NC(=O)c1ccc(-c2ccc3ncn(Cc4ccc5ncccc5c4)c3n2)cc1C(F)(F)F [Example 1024, 4-(3-Quinolin-6-ylmethyl-3H-imidazo[4,5-b]pyridin-5-yl)-2-trifluoromethyl-benzamide]	–	IC50 ([1]; Table 4C): < 25 nM; inhibition at 0.1 µM ([2]; Table 4C): 75 to 100%; GI50 ([3]; MKN-45, Table 4C): 100 to 250 nM
–	–	151 to 158 °C	–	–	C[C@@H](O)CNC(=O)c1ccc(-c2ccc3ncn(Cc4ccc5ncccc5c4)c3n2)cc1F [Example 109, (R)-2-fluoro-N-(2-hydroxypropyl)-4-(3-(quinolin-6-ylmethyl)-3H-imidazo[4,5-b]pyridin-5-yl)benzamide]	–	inhibition at 0.1 µM ([2]; Table 4B): 75 to 100%

Second part, the molecule before the results:

SMILES	IC50 ([1]; Table 4A)	inhibition at 0.1 µM ([2]; Table 4A)	melting point	GI50 ([3]; MKN-45, Table 4A)	IC50 [4]	inhibition at 0.1 µM ([3]; MKN-45, Table 4A)	also measured
Cc1ccc2cc(Cn3nnc4ccc(-c5cc(F)c(C(=O)NOCCO)c(F)c5)nc43)ccc2n1 [Example 21, 2,6-difluoro-N-(2-hydroxyethoxy)-4-(3-((2-methylquinolin-6-yl)methyl)-3H-[1,2,3]triazolo[4,5-b]pyridin-5-yl) benzamide]	25 to 50 nM	75 to 100%	208 to 210 °C	–	–	< 25%	–
O=C(NOCCO)c1ccc(-c2ccc3nnn(Cc4ccc5ncsc5c4)c3n2)cc1Cl [Example 18, 4-(3-(benzo[d]thiazol-6-ylmethyl)-3H-[1,2,3]triazolo[4,5-b]pyridin-5-yl)-2-chloro-N-(2-hydroxyethoxy)benzamide]	25 to 50 nM	50 to 75%	194 to 196 °C	50 to 100 nM	–	25 to 50%	–
O=C(NOCCO)c1c(F)cc(-c2ccc3nnn(Cc4ccc5ncsc5c4)c3n2)cc1F [Example 19, 4-(3-(benzo[d]thiazol-6-ylmethyl)-3H-[1,2,3]triazolo[4,5-b]pyridin-5-yl)-2,6-difluoro-N-(2-hydroxyethoxy)benzamide]	25 to 50 nM	75 to 100%	202 to 205 °C	50 to 100 nM	–	25 to 50%	–
O=C(NOCCO)c1c(F)cc(-c2ccc3nnn(Cc4cc5cccnc5cc4F)c3n2)cc1F [Example 9, 2,6-difluoro-4-(3-((7-fluoroquinolin-6-yl)methyl)-3H-[1,2,3]triazolo[4,5-b]pyridin-5-yl)-N-(2-hydroxyethoxy)benzamide]	25 to 50 nM	75 to 100%	–	50 to 100 nM	25 to 50 nM	75 to 100%	IC50 [5]: 10 to 25 nM; IC50 [6]: 10 to 25 nM; IC50 [7]: 50 to 250 nM; % induction of caspase-3 activity [8]: A (A is ≧75)
O=C(NOCCO)c1c(F)cc(-c2ccc3nnn(Cc4ccc5ncccc5c4)c3n2)cc1F [Example 8, 2,6-difluoro-N-(2-hydroxyethoxy)-4-(3-(quinolin-6-ylmethyl)-3H-[1,2,3]triazolo[4,5-b]pyridin-5-yl)benzamide]	25 to 50 nM	75 to 100%	–	50 to 100 nM	50 to 500 nM	25 to 50%	IC50 [5]: ≤ 10 nM; IC50 [6]: 25 to 50 nM; IC50 [7]: 50 to 250 nM; % induction of caspase-3 activity [8]: C (C is <50 and ≧25)
O=C(NOCCO)c1ccc(-c2ccc3nnn(Cc4cc5cccnc5cc4F)c3n2)cc1Cl [Example 7, 2-chloro-4-(3-((7-fluoroquinolin-6-yl)methyl)-3H-[1,2,3]triazolo[4,5-b]pyridin-5-yl)-N-(2-hydroxyethoxy)benzamide]	25 to 50 nM	75 to 100%	–	25 to 50 nM	≤ 10 nM	75 to 100%	IC50 [5]: ≤ 10 nM; IC50 [6]: ≤ 10 nM; IC50 [7]: ≤ 10 nM; % induction of caspase-3 activity [8]: A (A is ≧75)
O=C(NOCCO)c1ccc(-c2ccc3nnn(Cc4ccc5ncsc5c4)c3n2)cc1F [Example 20, 4-(3-(benzo[d]thiazol-6-ylmethyl)-3H-[1,2,3]triazolo[4,5-b]pyridin-5-yl)-2-fluoro-N-(2-hydroxyethoxy)benzamide]	25 to 50 nM	75 to 100%	164 to 166 °C	50 to 100 nM	–	75 to 100%	–
CC(=O)OCCONC(=O)c1ccc(-c2ccc3nnn(Cc4ccc5ncccc5c4)c3n2)cc1Cl [Example 11, 2-(2-chloro-4-(3-(quinolin-6-ylmethyl)-3H-[1,2,3]triazolo[4,5-b]pyridin-5-yl)benzamidooxy)ethyl acetate]	–	75 to 100%	168 to 170 °C	–	–	–	–
O=C(NOCCO)c1ccc(-c2ccc3nnn(Cc4ccc5ncccc5c4)c3n2)cc1F [Example 10, 2-fluoro-N-(2-hydroxyethoxy)-4-(3-(quinolin-6-ylmethyl)-3H-[1,2,3]triazolo[4,5-b]pyridin-5-yl)benzamide]	25 to 50 nM	75 to 100%	200 to 203 °C	25 to 50 nM	–	75 to 100%	–
CC(C)C(=O)OCCONC(=O)c1ccc(-c2ccc3nnn(Cc4ccc5ncccc5c4)c3n2)cc1Cl [Example 15, 2-(2-chloro-4-(3-(quinolin-6-ylmethyl)-3H-[1,2,3]triazolo[4,5-b]pyridin-5-yl)benzamidooxy)ethyl isobutyrate]	–	75 to 100%	115 to 118 °C	–	–	–	–
